Data: patent US20250319056A1, “METHODS FOR TREATING CANCER” (THE TRUSTEES OF INDIANA UNIVERSITY, priority 2024, published 2025)
Read-outs that look alike come from different tables or passages of the source.

Tests used:
[1] = AlamarBlue cell viability assay, non-cancerous intestine FHs-74Int cells; conditions: human, FHs-74Int non-cancerous intestine cells, Human Cell Viability CC50 Intestine (FHs 74Int), non-cancerous intestine cells, AlamarBlue, 48 h
[2] = tested on: DLD-1 cells; assay: AlamarBlue cell viability assay, DLD-1 colon cancer cells; type: cell-based; conditions: Homo sapiens, 48 h with compound, ^BP = curve baseline plateaued between ~10-20%, read-out: Human Cell Viability EC50 Colon Cancer (DLD1)
[3] = AlamarBlue cell viability assay, non-cancerous colon FHC cells; conditions: human, FHC non-cancerous colon cells, Human Cell Viability CC50 Colon (FHC), non-cancerous colon cells, AlamarBlue, 48 h
[4] = tested on: HT-29 cells; assay: AlamarBlue cell viability assay, HT-29 colon cancer cells; type: cell-based; conditions: Homo sapiens, 48 h with compound, ^BP = curve baseline plateaued between ~10-20%
[5] = tested on: HCT-116 cells; assay: AlamarBlue cell viability assay, HCT-116 colon cancer cells; type: cell-based, human; conditions: for EC50: read-out: Human Cell Viability EC50 Colon Cancer (HCT 116); for Average Selectivity Index: CC50 non-cancer cells (FHC, FHs 74Int) compared to EC50 HCT-116
[6] = biological target: T1, GroEL/ES (Escherichia coli, UniProt P0A6F5); assay: GroEL/ES-dMDH refolding assay; type: biochemical, E. coli
T1 construct: made in house; host or cells: NEB 5-alpha E. coli for GroEL; E. coli BL21 (DE3) for GroES
T1 sequence (P0A6F5 2-548): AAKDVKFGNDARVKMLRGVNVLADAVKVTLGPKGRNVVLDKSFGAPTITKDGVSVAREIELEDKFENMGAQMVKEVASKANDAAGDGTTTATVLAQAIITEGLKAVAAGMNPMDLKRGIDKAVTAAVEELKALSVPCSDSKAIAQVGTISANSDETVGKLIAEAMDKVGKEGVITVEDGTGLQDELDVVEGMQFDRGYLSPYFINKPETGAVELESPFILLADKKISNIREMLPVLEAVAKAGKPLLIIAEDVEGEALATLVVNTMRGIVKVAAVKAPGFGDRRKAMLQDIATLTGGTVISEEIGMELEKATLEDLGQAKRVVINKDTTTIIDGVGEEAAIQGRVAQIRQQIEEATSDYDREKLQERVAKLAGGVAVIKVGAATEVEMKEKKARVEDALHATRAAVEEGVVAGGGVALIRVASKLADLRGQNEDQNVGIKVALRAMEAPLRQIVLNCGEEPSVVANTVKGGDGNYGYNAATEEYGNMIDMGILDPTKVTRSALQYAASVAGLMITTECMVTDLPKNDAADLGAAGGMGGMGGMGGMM

[7] = biological target: T2, mHSP60/10 (Homo sapiens, UniProt P10809); assay: mHSP60/10-mediated dMDH refolding assay; type: biochemical
T2 construct: Processed human HSP60 (mHSP60—that would be in mitochondria) was expressed in Rosetta™ 2 (DE3) E. coli; octa-Histidine tag (TEV-cleavable) (N, cleaved yes); made in house; host or cells: E. coli Rosetta 2 (DE3) for mHSP60; Rosetta 2 (DE3) pLysS for HSP10
T2 sequence (P10809 27-573): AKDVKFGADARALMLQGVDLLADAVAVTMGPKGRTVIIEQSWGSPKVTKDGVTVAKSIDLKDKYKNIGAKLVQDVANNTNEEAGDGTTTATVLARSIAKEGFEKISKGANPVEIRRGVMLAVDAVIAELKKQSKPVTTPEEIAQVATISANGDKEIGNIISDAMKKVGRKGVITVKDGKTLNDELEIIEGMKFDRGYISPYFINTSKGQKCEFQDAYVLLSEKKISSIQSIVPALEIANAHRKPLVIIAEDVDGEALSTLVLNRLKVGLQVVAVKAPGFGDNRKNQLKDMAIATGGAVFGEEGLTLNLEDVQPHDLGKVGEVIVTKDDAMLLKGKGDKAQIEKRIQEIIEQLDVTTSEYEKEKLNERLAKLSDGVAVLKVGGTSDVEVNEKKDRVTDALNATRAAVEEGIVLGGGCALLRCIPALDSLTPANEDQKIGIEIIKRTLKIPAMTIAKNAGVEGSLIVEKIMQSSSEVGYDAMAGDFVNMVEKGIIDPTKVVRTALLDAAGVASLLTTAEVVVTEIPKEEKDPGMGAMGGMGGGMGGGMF

[8] = tested on: NCI-60 cancer cell panel; assay: NCI-60 panel dose-response cell growth testing; type: cell-based; conditions: follow-up dose response, range across NCI-60 cell lines
Description: FIGS. 11A-11G show cell growth results in dose-response for 7 lead candidate inhibitors (compound 162, FIG. 11A; compound 164, FIG. 11B; compound 128, FIG. 11C compound 165, FIG. 11D; compound 139, FIG. 11E; compound 143, FIG. 11F; compound 147, FIG. 11G) from initial single-dose NCI-60 screen.
Therefore, they appeared to act in a cytocidal manner.

[9] = tested on: NCI-60 cancer cell panel; assay: NCI-60 panel single-dose cell growth screen; type: cell-based; conditions: single dose 10 μM; 0 = cytostatic, -100% = cytocidal, +100% = growth
Description: FIGS. 10A-10J show cell growth results for 10 lead candidate inhibitors (compound 162, FIG. 10A; compound 163, FIG. 10B; compound 164, FIG. 10C; compound 4, FIG. 10D; compound 165, FIG. 10E; compound 139, FIG. 10F; compound 132, FIG. 10G; compound 143, FIG. 10H; compound 147, FIG. 10I; compound 128, FIG. 10J) tested at 10 μM against the NCI cancer cell panel. Zero indicates no cells growth/death from what was initially plated (cytostatic inhibition). −100% indicates […] (cytocidal inhibition). +100% indicates cell growth.
In a previous study evaluating the anti-cancer effects of ABK inhibitors, the National Cancer Institute (NCI) database was explored for existing cytotoxicity results for any compounds bearing α,β-unsaturated ketone moieties against the comprehensive NCI-60 cancer cell panel. […] The HQ-NAH and NF-NAH inhibitor library was explored based on the similarity to Nifuroxazide's scaffold. […] Initial screening was performed at a single concentration of 10 μM, and cell growth results are presented in aggregate based on cancer cell origin (FIGS. 10A-10J).

[10] = tested on: FHs-74Int cells
[11] = tested on: FHC cells
[12] = Homo sapiens, HCT-116, 48 h, AlamarBlue, 48 h with compound
[13] = denatured malate dehydrogenase client, read-out: IC50 mHSP60/10-dMDH refolding

Structure (SMILES) | CC50 at 48 h [1] [µM] | EC50 [2] [µM] | CC50 at 48 h [3] [µM] | EC50 [4] [µM] | Average Selectivity Index [5] | EC50 [5, 12] [µM] | CC50 [10] [µM] | CC50 [11] [µM] | also measured
CN(C)c1ccc(C(=C2C=CC(=[N+](C)C)C=C2)c2ccc(N(C)C)cc2)cc1 [Compound 56, Crystal Violet, reference compound] | 1.6 | 0.2 | 8.6 | 0.1 | 9.4 | 0.54 | – | – | EC50 ([5]; AlamarBlue, 48 h with compound): 0.5 µM; IC50 [6]: 0.8 to 9 µM; IC50 [7, 13]: 0.8 to 9 µM
COc1ccccc1S(=O)(=O)Nc1ccc(-c2nc3cc(NS(=O)(=O)c4ccccc4OC)ccc3o2)cc1 [Compound 164, 2-methoxy-N-(4-(5-((2-methoxyphenyl)sulfonamido)benzo[d]oxazol-2-yl)phenyl)benzenesulfonamide] | – | – | – | – | – | – | – | – | GI50 [8]: 1 to 5 µM; cell growth % NCI cancer cell panel [9]: around 0%
Oc1c(Cl)cc(Cl)c(Cl)c1Cc1c(O)c(Cl)cc(Cl)c1Cl [Compound 32, Hexachlorophene, reference compound] | – | – | – | – | – | – | – | – | EC50 ([5]; Homo sapiens, HCT-116, 48 h): 4.6 µM; IC50 [6]: 0.8 to 9 µM; IC50 [7]: 0.8 to 9 µM
O=C(/C=C/c1cccc([N+](=O)[O-])c1)c1ccc(NC(=O)c2ccco2)cc1 [Compound 4, (E)-N-(4-(3-(3-nitrophenyl)acryloyl)phenyl)furan-2-carboxamide] | 54 | 39.7 | > 100 | 3.6 | 19.1 | 4 | – | – | IC50 [6]: 0.8 to 9 µM; IC50 [7, 13]: 0.8 to 9 µM; cell growth % NCI cancer cell panel [9]: largely inactive
COc1ccc(-c2ccc3cc(C(=O)O)ccc3c2)cc1C12CC3CC(CC(C3)C1)C2 [Compound 25, Adapalene, reference compound] | 18.5 | 7.9 | 43.7 | 5.3 | 5.4 | 5.8 | – | – | IC50 [6]: 0.8 to 9 µM; IC50 [7, 13]: 0.8 to 9 µM
O=C(N/N=C/c1ccc(O)c2ccccc12)c1ccccc1 [Compound 149] | – | – | – | – | – | – | > 100 | > 100 | –
CCOc1ccc(S(=O)(=O)Nc2ccc(C(=O)N/N=C/c3ccc(O)c4ncccc34)cc2)cc1 [Compound 147, 4-ethoxy-N-(4-(2-((8-hydroxyquinolin-5-yl)methylene)hydrazine-1-carbonyl)phenyl)benzenesulfonamide] | 40 | 6.2 | 52 | 2.9 | 25 | 1.8 | – | – | GI50 [8]: 0.2 to 0.4 µM; cell growth % NCI cancer cell panel [9]: negative % growth
COc1ccc(C(=O)N/N=C/c2ccc(O)cc2)cc1 [Compound 154] | – | – | – | – | – | – | > 100 | > 100 | –
Cc1ccc(S(=O)(=O)Nc2ccc(-c3nc4cc(NS(=O)(=O)c5ccc(C)cc5)ccc4o3)cc2)cc1 [Compound 162, 4-methyl-N-(4-(5-((4-methylphenyl)sulfonamido)benzo[d]oxazol-2-yl)phenyl)benzenesulfonamide] | – | – | – | – | – | – | – | – | GI50 [8]: 1 to 5 µM; cell growth % NCI cancer cell panel [9]: negative % growth
O=C(N/N=C/c1ccc(O)cc1)c1ccccc1 [Compound 155] | – | – | – | – | – | – | > 100 | > 100 | –
O=C(N/N=C/c1ccc(O)c2ncccc12)c1cccc(Oc2ccccc2)c1 [Compound 143, N′-((8-hydroxyquinolin-5-yl)methylene)-3-phenoxybenzohydrazide] | 21 | – | 41 | – | 4.8 | 6.5 | – | – | GI50 [8]: 0.2 to 0.4 µM; cell growth % NCI cancer cell panel [9]: negative % growth
O=C(Nc1ccc(Sc2nc3ccccc3s2)c(Cl)c1)c1cc(Br)ccc1O [Compound 165, N-(4-(Benzo[d]thiazol-2-ylthio)-3-chlorophenyl)-5-bromo-2-hydroxybenzamide] | – | – | – | – | – | – | – | – | GI50 [8]: 1 to 5 µM; cell growth % NCI cancer cell panel [9]: negative % growth
COc1ccc(C(=O)N/N=C/c2ccccc2)cc1 [Compound 156] | – | – | – | – | – | – | > 100 | > 100 | –
COc1ccc(C(=O)N/N=C/c2cccc3ccccc23)cc1 [Compound 152] | – | – | – | – | – | – | > 100 | > 100 | –
O=C(N/N=C/c1ccc([N+](=O)[O-])o1)c1ccc(NS(=O)(=O)c2cccs2)cc1 [Compound 130] | 69 | 57 | > 100 | 8.1 | 9.3 | 9.1 | – | – | –
O=C(N/N=C/c1ccc(O)c2ncccc12)c1ccc(NS(=O)(=O)c2ccc(Br)cc2)cc1 [Compound 146] | 91 | 6 | 59 | 1.4 | 14 | 5.2 | – | – | –
O=C(N/N=C/c1ccc([N+](=O)[O-])o1)c1ccc(NS(=O)(=O)c2ccc(Br)cc2)cc1 [Compound 131] | > 100 | 29 | > 100 | 3.6 | 18.8 | 5.3 | – | – | –
O=C(N/N=C/c1ccc(O)c2ncccc12)c1ccccc1Oc1ccccc1 [Compound 142] | 87 | 1.6 | 71 | 3.7 | 13 | 6.3 | – | – | –
CCCCCOc1ccc(/C=C2\Oc3c(ccc(O)c3O)C2=O)c(O)c1 [Compound 86] | > 100 | 23 | > 100 | 5.9 | 8.0 | 12.5 | – | – | IC50 [6]: 0.8 to 9 µM; IC50 [7, 13]: 0.8 to 9 µM
O=C(N/N=C/c1cccc2ncccc12)c1ccccc1 [Compound 151] | – | – | – | – | – | – | > 100 | > 100 | –
COc1ccc(C(=O)N/N=C/c2ccc([N+](=O)[O-])o2)cc1 [Compound 124] | 47 | 7.6 | > 100 | 2.7 | 16.1 | 4.6 | – | – | –
O=C(N/N=C/c1ccccc1)c1ccccc1 [Compound 157] | – | – | – | – | – | – | > 100 | > 100 | –
Oc1cccc(C(Nc2nccs2)c2ccc3cccnc3c2O)c1 (stereo not shown) [Compound 90] | 64.6 | 15 | 66.6 | 8.3 | 26.2 | 2.5 | – | – | IC50 [6]: 0.8 to 9 µM; IC50 [7, 13]: 0.8 to 9 µM
COc1ccc(C(=O)N/N=C/c2ccc(O)c3ccccc23)cc1 [Compound 148] | – | – | – | – | – | – | > 100 | > 100 | –
COc1ccc(C(=O)N/N=C/c2cccc3ncccc23)cc1 [Compound 150] | – | – | – | – | – | – | > 100 | > 100 | –
O=C(N/N=C/c1ccc([N+](=O)[O-])o1)c1ccc(O)cc1 [Nifuroxazide (Nfz), Nifuroxazide, reference compound] | 62 | 1.5 | 66 | 3.5 | 7.7 | 8.3 | – | – | –
O=C(N/N=C/c1cccc2ccccc12)c1ccccc1 [Compound 153] | – | – | – | – | – | – | > 100 | ≥ 100 | –
CC1CS(=O)(=O)CCN1/N=C/c1ccc(O)c2ncccc12 (stereo not shown) [Compound 134] | 87 | 6.3 | > 100 | 8.1 | 13 | 7 | – | – | –
